Literature values as cited in patent US6660296B2, “Sustained-release microgranules containing diltiazem as active principle” (Laboratories des Produits Ethiques Ethypharim, priority 1995, dated 2003).

Settings: neutral or basic pH; Diltiazem or its pharmaceutically acceptable salts

In the case of `COc1ccc([C@@H]2Sc3ccccc3N(CCN(C)C)C(=O)[C@@H]2OC(C)=O)cc1` [Diltiazem], the Solubility is listed as “sparingly soluble”.
